Several values for one entry are separate records, joined by “and”; a condition that tells them apart may be missing. Identical values can stand only once.
Key:
Bcl-xL/Bak complex = molecular target: T1, Bcl-xL/Bak complex (Homo sapiens, UniProt Q07817); test: Fluorescence polarization competition assay (displacement of fluorescein-labeled Bak peptide from Bcl-xL); assay type: binding; settings: for Ki / K1 ± S.D.: 15 nM Fl-Bak, 184 nM Bcl-xL, 10 mM PBS pH 7.4, 25° C., mean of three independent experiments; for Ki: read-out: K1 ± S.D.; for affinity / activity in disrupting the Bcl-xL/Bak interaction (in words): summary of Table 1
T1 construct: made in house
T1 sequence (Q07817 whole entry, species assumed, one chain of several): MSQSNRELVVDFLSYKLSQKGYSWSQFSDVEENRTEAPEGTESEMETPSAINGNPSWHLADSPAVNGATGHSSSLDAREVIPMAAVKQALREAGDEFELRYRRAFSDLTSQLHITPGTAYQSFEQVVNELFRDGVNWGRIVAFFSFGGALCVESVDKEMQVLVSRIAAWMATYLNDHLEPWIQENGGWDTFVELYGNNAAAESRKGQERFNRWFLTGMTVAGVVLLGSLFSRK
Description: Fluorescence polarization experiments were conducted on a Photon Technology International instrument using a 0.3 cm path length cuvette.

15N-labeled Bcl-xL = 15N-labeled Bcl-xL (Homo sapiens, UniProt Q07817); test: (15N,1H)-2D-HSQC amide chemical shift perturbation mapping; assay type: binding; settings: 2 mM Bcl-xL, 0, 1, 2 mM compound, 10% DMSO/D2O, 25° C., PBS pH 7.0
Chain of 15N-labeled Bcl-xL (Q07817 whole entry): as the sequence (Q07817 whole entry, species assumed, one chain of several) above
Description: (^15N, ^1H)-2D-HSQC spectra were recorded on a Varian DPX-600 spectrometer. The concentration of Bcl-xL was 2 mM, with 0, 1 mM, 2 mM 3-26, respectively, in 10% DMSO/D2O (25° C., 10.0 mM PBS, pH 7.0).
To structurally probe the binding mode of the terephthalamide, (^15N, ^1H)-2D-amide chemical shift perturbation mapping with ^15N-labeled Bcl-xL were performed as above. Addition of compound 3-26 led to shifts in a number of residues on the surface of Bcl-xL. […] These affected residues all lie in the shallow cleft on the protein into which the Bak helix binds.

Compound | Ki (Bcl-xL/Bak complex) | affinity / activity in disrupting the Bcl-xL/Bak interaction (in words) (Bcl-xL/Bak complex) | other results
COC(=O)[C@H](CC(C)C)NC(=O)c1ccc(C(=O)N(C(C)C)C(C)C)cc1OC(C)C [Compound 3-9, (S)-2-(4-Diisopropylcarbamoyl-2-isopropoxy-benzoylamino)-4-methyl-pentanoic acid methyl ester] | 0.78 µM and 0.781 µM | low micro-molar Ki values | –
CC(C)C[C@H](NC(=O)c1ccc(C(=O)N(C(C)C)C(C)C)cc1OC(C)C)C(=O)O [Compound 3-10] | 0.839 ± 0.171 µM | – | –
CC(C)C[C@H](NC(=O)c1ccc(C(=O)N(C(C)C)C(C)C)cc1NC(C)C)C(=O)O [Compound 3-17, (S)-2-(4-Diisopropylcarbamoyl-2-isopropylamino-benzoylamino)-4-methyl-pentanoic acid] | 3.31 ± 0.345 µM | – | affinity less than 2-isopropoxy analogue 3-10 (Bcl-xL/Bak complex; relative to 3-10): 4 fold
COC(=O)[C@H](CC(C)C)NC(=O)c1ccc(C(=O)N(CC(C)C)[C@@H](C)C(=O)OC)cc1OC(C)C [Compound 3-22, (S)-2-{4-[Isobutyl-((S)-1-methoxycarbonyl-ethyl)-carbamoyl]-2-isopropoxy-benzoylamino}-4-methyl-pentanoic acid methyl ester] | – | did not show activity | K1 ± S.D. (Bcl-xL/Bak complex): No affinity
COC(=O)[C@H](CC(C)C)NC(=O)c1ccc(C(=O)N(C(C)C)C(C)C)cc1OC [Compound 3-26, (S)-2-(4-Diisopropylcarbamoyl-2-methoxy-benzoylamino)-4-methyl-pentanoic acid methyl ester] | 1.85 ± 0.318 µM | – | amide chemical shift changes of Bcl-xL residues on addition of inhibitor (15N-labeled Bcl-xL): significant chemical shift changes
COC(=O)[C@H](C)NC(=O)c1ccc(C(=O)N(C)C)cc1OC(C)C [Compound 3-33, (S)-2-(4-Dimethylcarbamoyl-2-isopropoxy-benzoylamino)-propionic acid methyl ester] | 8.34 ± 1.61 µM | – | –
CC(C)Oc1cc(C(=O)N(C)C)ccc1C(=O)N[C@@H](Cc1ccccc1)C(=O)O [Compound 3-35, (S)-2-(4-Dimethylcarbamoyl-2-isopropoxy-benzoylamino)-3-phenyl-propionic acid] | 8.92 ± 3.59 µM | – | –
CCN(CC)C(=O)c1ccc(C(=O)N[C@@H](C)C(=O)OC)c(OC(C)C)c1 [Compound 3-37, (S)-2-(4-Diethylcarbamoyl-2-isopropoxy-benzoylamino)-propionic acid methyl ester] | 2.44 ± 0.947 µM | low micro-molar Ki values | –
CCN(CC)C(=O)c1ccc(C(=O)N[C@@H](CC(C)C)C(=O)OC)c(OC(C)C)c1 [Compound 3-38, (S)-2-(4-Diethylcarbamoyl-2-isopropoxy-benzoylamino)-4-methyl-pentanoic acid methyl ester] | 11.4 ± 5.09 µM | – | –
COC(=O)[C@H](C)NC(=O)c1ccc(C(=O)N(CC(C)C)CC(C)C)cc1OC(C)C [Compound 3-39, (S)-2-(4-Diisobutylcarbamoyl-2isopropoxy-benzoylamino)-propionic acid methyl ester] | 8.76 ± 2.78 µM | – | –
COC(=O)[C@H](CC(C)C)NC(=O)c1ccc(C(=O)N(CC(C)C)CC(C)C)cc1OC(C)C [Compound 3-40, (S)-2-(4-Diisobutylcarbamoyl-2-isopropoxy-benzoylamino)-4-methyl-pentanoic acid methyl ester] | 8.36 ± 3.8 µM | – | –
COC(=O)[C@@H](NC(=O)c1ccc(C(=O)N(CC(C)C)CC(C)C)cc1OC(C)C)C(C)C [Compound 3-41, (S)-2-(4-Diisobutylcarbamoyl-2-isopropoxy-benzoylamino)-3-methyl-butyric acid methyl ester] | 138 ± 49.5 µM | – | –
CC(C)Oc1cc(C(=O)N(c2ccccc2)c2ccccc2)ccc1C(=O)N[C@@H](C)C(=O)O [Compound 3-42, (S)-2-(4-Diphenylcarbamoyl-2-isopropoxy-benzoylamino)-propionic acid] | 260 ± 58 µM | most of the affinity was lost | –
CC(C)C[C@H](NC(=O)c1ccc(C(=O)N(c2ccccc2)c2ccccc2)cc1OC(C)C)C(=O)O [Compound 3-43, (S)-2-(4-Diphenylcarbamoyl-2-isopropoxy-benzoylamino)-4-methyl-pentanoic acid] | 780 ± 174 µM | most of the affinity was lost | –
COC(=O)[C@H](CC(C)C)NC(=O)c1ccc(C(=O)N(c2ccccc2)c2ccccc2)cc1OC(C)C [Compound 3-44, (S)-2-(4-Diphenylcarbamoyl-2-isopropoxy-benzoylamino)-4-methyl-pentanoic acid methyl ester] | – | most of the affinity was lost | K1 ± S.D. (Bcl-xL/Bak complex): No affinity
CC(C)Oc1cc(C(=O)N(c2ccccc2)c2ccccc2)ccc1C(=O)N[C@@H](Cc1ccccc1)C(=O)O [Compound 3-45, (S)-2-(4-Diphenylcarbamoyl-2-isopropoxy-benzoylamino)-3-phenyl-propionic acid] | – | most of the affinity was lost | K1 ± S.D. (Bcl-xL/Bak complex): No affinity
CC(C)CC(NC(=O)c1ccc(C(=O)NCC(=O)O)cc1O)C(=O)O (centres unmarked) [Compound 3-46] | – | – | K1 ± S.D. (Bcl-xL/Bak complex): No affinity

From US20070123592A1, “Terephthalamide peptidomimetic compounds and methods” (YALE UNIVERSITY, priority 2004, published 2007)
